Columns and labels:
[1] = target: Delta-type opioid receptor (Rattus norvegicus, UniProt P33533); assay: Affinity to delta opioid receptor determined in the presence of [3H]- [D-Pen2,5]enkephalin using membranes prepared from rat cerebrum
[2] = target: Kappa-type opioid receptor (Cavia porcellus, UniProt P41144); assay: Affinity at K opioid receptor on membranes prepared from guinea pig cerebellum by [3H]- 69593 displacement.; assay type: tissue-based
Mu-type opioid receptor = Mu-type opioid receptor (Rattus norvegicus, UniProt P33535); assay: Affinity to mu opioid receptor determined in the presence of [3H]- PL 017 using membranes prepared from rat cerebrum
Sequence of Mu-type opioid receptor (P33535 whole entry): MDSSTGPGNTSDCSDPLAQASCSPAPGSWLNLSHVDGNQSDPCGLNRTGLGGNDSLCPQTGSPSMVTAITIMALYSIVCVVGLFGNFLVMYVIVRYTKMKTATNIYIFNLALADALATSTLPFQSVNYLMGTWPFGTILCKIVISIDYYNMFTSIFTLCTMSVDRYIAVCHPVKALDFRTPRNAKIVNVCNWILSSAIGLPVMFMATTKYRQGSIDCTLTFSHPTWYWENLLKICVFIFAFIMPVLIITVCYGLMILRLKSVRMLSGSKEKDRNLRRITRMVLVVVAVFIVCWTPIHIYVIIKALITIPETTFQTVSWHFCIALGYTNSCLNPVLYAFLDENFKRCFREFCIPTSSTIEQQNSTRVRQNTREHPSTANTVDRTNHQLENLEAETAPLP

Mus musculus [3] = assay: Inhibitory dose (sc) in the formalin test in mice at late phase; assay type: functional; settings: read-out: ID50 (the source's name)
Mus musculus [4] = assay: Inhibitory dose (sc) in the formalin test in mice at early phase; assay type: functional; settings: read-out: ID50 (the source's name)

Sequence of Delta-type opioid receptor (P33533 whole entry): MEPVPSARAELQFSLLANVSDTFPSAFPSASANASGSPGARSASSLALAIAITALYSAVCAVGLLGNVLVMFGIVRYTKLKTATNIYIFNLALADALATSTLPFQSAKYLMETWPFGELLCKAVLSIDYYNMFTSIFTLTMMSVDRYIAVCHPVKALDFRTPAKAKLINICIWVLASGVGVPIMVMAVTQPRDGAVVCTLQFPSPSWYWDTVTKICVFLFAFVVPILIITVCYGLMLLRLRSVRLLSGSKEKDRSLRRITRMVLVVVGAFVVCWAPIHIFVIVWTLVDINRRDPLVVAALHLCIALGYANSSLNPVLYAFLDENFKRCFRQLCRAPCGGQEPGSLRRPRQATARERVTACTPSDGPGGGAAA
Sequence of Kappa-type opioid receptor (P41144 whole entry): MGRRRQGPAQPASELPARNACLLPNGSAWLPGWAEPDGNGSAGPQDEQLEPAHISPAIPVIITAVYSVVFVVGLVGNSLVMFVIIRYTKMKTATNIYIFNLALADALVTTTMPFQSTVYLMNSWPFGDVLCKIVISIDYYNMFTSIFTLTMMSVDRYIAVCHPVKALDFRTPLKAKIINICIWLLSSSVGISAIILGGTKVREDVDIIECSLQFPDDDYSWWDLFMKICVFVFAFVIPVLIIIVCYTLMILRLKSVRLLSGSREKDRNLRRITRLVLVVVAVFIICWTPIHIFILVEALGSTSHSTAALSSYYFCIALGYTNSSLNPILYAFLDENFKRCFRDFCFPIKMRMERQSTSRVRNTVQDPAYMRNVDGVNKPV

| Structure (SMILES) | Ki [1] [nM] | Ki ([2]; read-out: Ki) [nM] | Ki (Mu-type opioid receptor) [nM] | Ki [2] [nM l-1] | ED50 (Mus musculus [3]) [mg/kg] | ED50 (Mus musculus [4]) [mg/kg] |
| --- | --- | --- | --- | --- | --- | --- |
| CN(C(=O)C1c2ccccc2Cc2ccccc21)[C@H](CN1CC[C@H](O)C1)c1ccccc1 | > 100 | 4 | > 100 |  |  |  |
| CN(C(=O)C(c1ccccc1)c1ccccc1)[C@H](CN1CC[C@H](O)C1)c1cccc(N)c1 |  | 6 |  |  |  |  |
| CN(C(=O)C(c1ccc(Cl)cc1)c1ccc(Cl)cc1)[C@H](CN1CC[C@H](O)C1)c1ccccc1 | > 100 | 5 | > 100 |  |  |  |
| CN(C(=O)C(c1ccccc1)C1CCCCC1)[C@H](CN1CC[C@H](O)C1)c1ccccc1 (stereo in doubt; form 2) | > 100 | 10 | > 100 |  |  |  |
| CN(C(=O)C1c2ccccc2Oc2ccccc21)[C@H](CN1CC[C@H](O)C1)c1ccccc1 | > 100 | 4 | > 100 |  |  |  |
| CN(C(=O)C(c1ccc(F)cc1)c1ccc(F)cc1)[C@H](CN1CC[C@H](O)C1)c1ccccc1 | > 100 | 7 | > 100 |  |  |  |
| CN(C(=O)C(c1cccs1)c1cccs1)[C@H](CN1CC[C@H](O)C1)c1ccccc1 | > 100 | 4 | > 100 |  |  |  |
| CN(C(=O)C1c2ccccc2CCc2ccccc21)[C@H](CN1CC[C@H](O)C1)c1ccccc1.Cl | > 100 |  | > 100 | 20 |  |  |
| CN(C(=O)C1c2ccccc2-c2ccccc21)[C@H](CN1CC[C@H](O)C1)c1ccccc1 | 60 | 6 | 40 |  |  |  |
| CC(=O)Nc1cccc([C@@H](CN2CC[C@H](O)C2)N(C)C(=O)C(c2ccccc2)c2ccccc2)c1 |  | 6 |  |  |  |  |
| CN(C(=O)C(c1ccccc1)c1ccccc1)[C@H](CN1CC[C@H](O)C1)c1cccc([N+](=O)[O-])c1.Cl |  |  |  | 20 |  |  |
| Cc1ccc(C(C(=O)N(C)[C@H](CN2CC[C@H](O)C2)c2ccccc2)c2ccc(C)cc2)cc1.Cl | > 100 |  | > 100 | 20 |  |  |
| CN(C(=O)C(c1ccccc1)c1ccccc1)[C@H](CN1CC[C@H](O)C1)c1ccc(O)cc1 |  | 6 |  |  |  |  |
| COc1ccc([C@@H](CN2CC[C@H](O)C2)N(C)C(=O)C(c2ccccc2)c2ccccc2)cc1 |  | 7 |  |  |  |  |
| CN1CC[C@]23c4c5ccc(O)c4O[C@H]2[C@@H](O)C=C[C@H]3[C@H]1C5 [MORPHINE] |  |  |  |  | 3.4 | 1.7 |
| CC(C)[C@@H](CN1CCCC1)N(C)C(=O)Cc1ccc(Cl)c(Cl)c1 |  |  |  |  | 0.02 | 0.04 |
| CN(C(=O)C(c1ccccc1)c1ccccc1)[C@H](CN1CC[C@H](O)C1)c1ccccc1.Cl [ASIMADOLINE HYDROCHLORIDE] | > 100 |  | > 100 |  | 0.24 | > 2 |
| CN(C(=O)C(c1ccccc1)C1CCCCC1)[C@H](CN1CC[C@H](O)C1)c1ccccc1 (stereo in doubt; form 1) | > 100 | 10 | > 100 |  |  |  |
| CN(C(=O)C1c2ccccc2Sc2ccccc21)[C@H](CN1CC[C@H](O)C1)c1ccccc1 | > 100 | 10 | > 100 |  |  |  |

From ChEMBL document CHEMBL1127260, “EMD 61 753 as a favourable representative of structurally novel arylacetamido-type K opiate receptor agonists” (Bioorg Med Chem Lett, 1994)
